In patent US20090215666A1, “VIVIT POLYPEPTIDES, THERAPEUTIC AGENT COMPRISING THE SAME, AND METHOD OF SCREENING FOR ANTI-CANCER AGENT” (Oncotherapy Science, Inc., priority 2005, published 2009):
Ends that are not written are not given here.

Tests used:
[1] = test system: PK-1 cells; assay: MTT cell-growth assay for evaluation of inhibitory peptides; format: cell-based, Human; settings: FIG. 4
[2] = test system: PK-1 cells; assay: Flow cytometric analysis of sub-G1 fraction (propidium iodide); format: cell-based, Human; settings: 40 μM, 12 hr, FIG. 7
Method: PK-1 cell was maintained as described before (RPMI with 10% FBS). The cells were incubated with or without negative control (40 μM as a final concentration) or C1958VIVIT (10, 20, and 40 μM) peptide for 12 hr. After the incubation, cells were detached by trypsin and collected to tubes and washed with PBS for 3 times. Then the cells were fixed with 67% ethanol for 30 min at room temperature (RT), washed with PBS once, and treated with RNase (2 mg/ml in PBS) for 30 min at RT. Finally the cell nuclei were stained with propidium iodide (PI) for 30 min at RT. Flow cytometric analysis was done with FACS calibur (BD).

[3] = set-up: species or system mice (BALB/cA Jcl-nu); settings: mouse, in vivo, 9 mg/kg/day
Method: In vivo experiments were performed in our animal facility in accordance with institutional guidelines. A 0.1-ml aliquot of suspended PK-1 cells (5×10^6 cells) was injected subcutaneously into the flanks of six-week-old female athymic mice (BALB/cA Jcl-nu). Tumor volumes were determined using the formula: 0.52×(larger diameter)×(smaller diameter)×(depth). When the xenograft reached to 100 mm^3 in size, animals were randomly divided into two or three groups and received intratumoral or intravenous injection of 180 μg of 11R-C1958VIVIT, 11R-VEET, or PBS for 21 consecutive days. Tumor growth was assessed by calculating the ratio of tumor volume on the indicated day to the volume calculated on the initiation of treatment.

Substance: RRRRRRRRRRR-GGG-KHLDVPDIIITPPTPT [11R-C1958]
- inhibition of growth of the cells (MTT assay) ([1]; peptide 25 μM): neither 11R—C1958 (25 μM) nor 11R-VEET (40 μM) peptides, significantly inhibited the growth of the cells

Substance: RRRRRRRRRRR-GGG-MAGPPHIVEETGPHVI (RRRRRRRRRRRGGGMAGPPHIVEETGPHVI; Artificially synthesized peptide for inhibition of the interaction of C1958 and PPP3CA as control) [11R-VEET, 10, reference compound]
- sub-G1 fraction of the treated cells [2]: did not affect
- inhibition of growth of the cells (MTT assay) ([1]; peptide 40 μM): neither 11R—C1958 (25 μM) nor 11R-VEET (40 μM) peptides, significantly inhibited the growth of the cells

Substance: RRRRRRRRRRRGGGKHLDVPVIVITPPTPT [11R-C1958VIVIT, RRRRRRRRRRR-GGG-KHLDVPVIVITPPTPT]
- apparent negative effects on mice conditions [3]: nor apparent negative effects on mice conditions were observed
